According to patent US20160154122A1, “Scintillating Organic Materials and Methods For Detecting Neutron and Gamma Radiation” (Nanoptics, Incorporated, priority 2011, published 2016):
Where two headings read alike, the source gives them in different places.

How the values were obtained:
[1] = Solubility of base dye in polystyrene; type: physicochemical; details: base dye measured to be soluble in polystyrene
[2] = result in words; cited from earlier work
[3] = Text: Salts of lithium can have a variety of properties, including one or more of the following: many salts of lithium are very chemically reactive; others are extremely insoluble; some are not produced in high volume and are, therefore, expensive to use at high concentration; and others have elements with moderate to high atomic numbers, causing quenching of the scintillation light.
[4] = result in words; cited from earlier work; remark: listed apart in the source

Cc1cccc2ccccc12 [1-Methyl Naphthalene]
Solubility [1]: >1000 mM

c1ccc(-c2cnc(-c3ccccc3)o2)cc1 [2,5 Diphenyloxazole]
Solubility [1]: >1500 mM

Cc1ccc2ccccc2c1 [2-Methyl Naphthalene]
Solubility [1]: >1000 mM

CN1CCN(C)C1=O [DMI, 1,3 Dimethyl 2-Imidazolidone]
Miscibility with water [2]: miscible

O=C([O-])c1ccccc1.[Li+] [Lithium Benzoate]
Percentage wt of Lithium in Solution H2O [3]: 2.40 % wt/wt

[Cl-].[Li+] [Lithium Chloride]
Solubility of Compound (wt %) DIM [3]: >15.0 wt % | Solubility of Compound (wt %) DMSO [3]: 10.20 wt % | Solubility of Compound (wt %) H2O [3]: 83.50 wt %

[Li+].[O-][Cl+3]([O-])([O-])[O-] [Lithium Perchlorate]
Percentage wt of Lithium in Solution DMSO ([3]; achievable lithium ions in DMSO): 2.05 % wt/wt | Percentage wt of Lithium in Solution H2O ([3]; achievable lithium ions in H2O): 3.70 % wt/wt | Solubility of Compound (wt %) DMSO ([3]; maximum solubility in DMSO): 31.50 wt % | Solubility of Compound (wt %) H2O ([3]; maximum solubility in H2O): 56.10 wt %

C=CN1CCCC1=O [N-Vinyl-2-Pyrrolidone]
Hygroscopic [4]: Yes

CN1CCCC1=O [NMP, Methylpyrrolidone]
Miscibility with water [2]: miscible

c1ccc2ccccc2c1 [Naphthalene]
Solubility [1]: >1000 mM

Cc1ccc(C)cc1 [p-Xylene]
Solubility [1]: >1000 mM

Cc1ccc(C)c(C)c1 [pseudocumene]
Solubility [1]: >1000 mM
